Results taken from patent US20140050674A1, “Method for Improving Penetration or Long Term Adhesion of Compositions to Dental Tissues and Compositions Usable in Said Method” (University of Oulu, priority 2011, published 2014).

Columns and labels:
MDPC-23 cells [1] = experiment: Cell metabolism (SDH production, MTT assay); format: cell-based; details: 24 h
Description: (§1) Immortalized odontoblast-like MDPC-23 cell line, frequently used for the evaluation of cytotoxicity of dental materials, was used to analyse the effect of different DMSO concentrations on pulpal cell viability. The cell culturing and methodology followed that described by Aranha et al. (2011). Briefly, DMEM culture medium with different concentrations of DMSO (0.05, 0.1, 0.3, 0.5 and 1.0 mM) were placed in contact with MDPC-23 cells (5×10^4 cells/cm^2) for 24 h. Pure DMEM was used in the control group. Twelve replicates were prepared in each group, except for flow cytometry analysis (n=8). Viable cell number (Trypan Blue), cell metabolism (production of succinic dehydrogenase enzyme-SDH, MTT assay) and cell death by necrosis (flow cytometry) were evaluated as described before (Ribeiro et al. 2010, Aranha et al. 2011).

MMP-2 [2] = molecular target: T1, MMP-2 (Homo sapiens, UniProt P08253); experiment: EnzChek Gelatinase/Collagenase Assay Kit; format: biochemical; details: 3% DMSO; APMA-activated MMP-2; 24 h incubation
T1 construct: made in house
T1 sequence (P08253 110-660): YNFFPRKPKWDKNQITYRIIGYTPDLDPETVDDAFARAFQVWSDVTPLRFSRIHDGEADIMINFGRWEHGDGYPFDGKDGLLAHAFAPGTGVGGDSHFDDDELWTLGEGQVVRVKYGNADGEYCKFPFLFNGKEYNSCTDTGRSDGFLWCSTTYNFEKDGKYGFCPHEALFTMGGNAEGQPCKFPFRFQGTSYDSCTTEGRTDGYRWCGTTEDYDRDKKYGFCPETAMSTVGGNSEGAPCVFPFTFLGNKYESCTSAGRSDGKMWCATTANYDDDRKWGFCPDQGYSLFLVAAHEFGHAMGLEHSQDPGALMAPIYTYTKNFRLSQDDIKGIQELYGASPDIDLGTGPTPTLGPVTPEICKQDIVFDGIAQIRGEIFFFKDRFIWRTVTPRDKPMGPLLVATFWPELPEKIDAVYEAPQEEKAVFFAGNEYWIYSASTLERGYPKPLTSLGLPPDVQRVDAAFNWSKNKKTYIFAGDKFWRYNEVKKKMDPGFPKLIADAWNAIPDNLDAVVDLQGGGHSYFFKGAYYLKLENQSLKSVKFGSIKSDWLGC
Description: (§2) EnzChek Gelatinase/Collagenase Assay Kit (Molecular Probes, Eugene, Oreg., USA) was used to detect the effect of DMSO on the gelatinolytic activities of MMP-2 and -9 according to manufacturer's protocol. Briefly, 3 ng of MMP-2 (purified from cell culture media), 3 ng MMP-9 (purified from cell culture media), and 5 ng of recombinant MMP-9 (Chemicon) were diluted into the reaction buffer (50 mM Tris-HCl, 150 mM NaCl, 5 mM CaCl2, 0.2 mM NaN3, pH 7.6) and incubated with quenched fluorescein-conjugated gelatin (50 μg/ml) and 0%, 0.01%, 0.1%, 0.5%, 1%, 2%, 3%, 4% or 5% of DMSO in a black-walled 96 well microplate at RT in dark. Fluorescent intensity indicating the gelatinolysis was measured at multiple time points with Fluoromax2/Micromax fluorometer (ISA Jobin Yvon-Spex, Edison, N.J., USA). Analyses were performed as quadruplicates. The relative intensities were calculated against 0% of DMSO.

MMP-2 [3] = experiment: EnzChek Gelatinase/Collagenase Assay Kit; format: biochemical; details: 4 to 5% DMSO; non-activated (no APMA) and activated (APMA) MMP-2
Description: as §2

[4] = test system: dentin collagenolytic enzymes; experiment: Hydroxyproline release from demineralized dentin beams; format: biochemical
Description: Type I collagen contains about 10 mass % hydroxyproline (HYP), an amino acid almost non-existent in other proteins. Detection of HYP release form demineralized dentin beams was used to evaluate whether DMSO would be effective in inhibiting MMPs in dentin collagen matrix, using a method described in Carrilho et al. 2009. Seventy-six dentin beams (1 mm×1 mm×9 mm) were divided into four groups (n=19 per group) and demineralized. Each beam was individually incubated in a polypropylene tubes with 1 ml of medium containing 50 mmol/L HEPES, 5 mmol/L CaCl2 2H2O, 0.001 mmol/L ZnCl2, 150 mmol/L NaCl, and 3 mmol/L NaN3, pH 7.2, that ensures availability of Zn- and Ca-ions for MMP function. The control samples were incubated in a medium without DMSO: in two groups the beams were incubated with DMSO in medium with 0.001% and 0.01% concentrations. In one group, demineralized dentin beams were immersed in 5% DMSO for 15 minutes and then incubated in a medium without DMSO for the rest of the experiment. Tubes were incubated in a water-shaker bath at 37° C. for a week. Then the medium was completely removed and quantitated for HYP content according to the colorimetric absorbance method described by Jamall et al (1981). Fresh 1 mL of medium was replaced in each tube for additional three weeks of incubation, when the media was removed and analyzed for HYP content. HYP standards were prepared from a 1 mg/mL HYP stock solution in 50% isopropanol. The resulting amount of HYP (mg/mL) was used to estimate the percentage of solubilized (degraded) collagen assuming that 90% of the dry mass of demineralized dentin beams consisted of type I collagen and that 10 mass % of collagen is HYP (Carrilho et al. 2009).

MDPC-23 cells [5] = experiment: Cell death by necrosis (flow cytometry); format: cell-based; details: 24 h
Description: as §1

[6] = test system: gelatinases MMP-2 and MMP-9; experiment: Gelatin zymography; format: biochemical, human
Description: Gelatin zymography was performed in 10% SDS-PAGE containing 1 mg/ml labelled gelatin in a usual fashion (Invitrogen, Carlsbad, Calif., USA) (O'Grady et al. 1984). After the electrophoresis, SDS was removed by 2.5% Triton X-100 to renature the gelatinases. Gels were then incubated overnight at 37° C. in 50 mM Tris-HCl buffer (5 mM CaCl2, 1 μM ZnCl2, 0.02% NaN3, pH 7.5) zymography incubation buffer with 0%, 0.1%, 2.5%, 5%, 10% or 20% of DMSO to observe the effect of DMSO concentration on the MMP activity. The degradation of gelatin was visualized under UV light. Gels were also stained with 0.5% Coomassie Blue R-250. The intensities of the bands were quantified by ScionImage software (Scion Corporation, Frederick, Mass., USA). The analysis was done as triplicates, and relative amounts against 0% DMSO were calculated.

MDPC-23 cells [7] = experiment: Viable cell number (Trypan Blue); format: cell-based; details: 24 h
Description: as §1

`C[S+](C)[O-]` [DMSO, dimethyl sulphoxide] was tested. Which “Cell metabolism (SDH production, MTT assay)” value (“Cell metabolism” below) (MDPC-23 cells [1]; 0.05 mM DMSO) did it give?
Its value is 2.343 (2.287-2.387) ab.

What about the “Cell metabolism” value (MDPC-23 cells [1]; 0.1 mM DMSO) of the same compound?
The value was 2.468 (2.359-2.557) a.

And the “Cell metabolism” value (MDPC-23 cells [1]; 0.3 mM DMSO)?
The value was 2.484 (2.399-2.520) a.

And the “Cell metabolism” value (MDPC-23 cells [1]; 0.5 mM DMSO)?
The value was 2.478 (2.294-2.542) ab.

And the “Cell metabolism” value (MDPC-23 cells [1]; 1.0 mM DMSO)?
Its value is 2.410 (2.119-2.501) ab.

What about the “Production of SDH enzyme vs control” value (MDPC-23 cells [1]; 0.05-1.0 mM DMSO, not concentration-dependent) of the same compound?
The value was “Slight increase”.

What about the “Inhibition of MMP-2 gelatinolytic activity” value (MMP-2 [2]) of the same compound?
Its value is “statistically significant inhibition”.

What about the “Inhibition of MMP-2 gelatinolytic activity” value (MMP-2 [3]) of the same compound?
Its value is “theoretical maximum inhibition”.

And the “HYP release into the medium” value ([4]; 0.001% DMSO in medium, 4-week incubation)?
Its value is “significantly decreased”.

What about the “HYP release into the medium” value ([4]; 0.01% DMSO in medium, 4-week incubation) of the same compound?
Its value is “significantly decreased”.

And the “HYP release into the medium” value ([4]; 15 minute immersion in 5% DMSO prior the 4-week incubation)?
Its value is “significantly decreased”.

What about the “Demineralized dentin collagen degradation by matrix enzymes” value ([4]; DMSO (FIG. 14)) of the same compound?
Its value is “significant decrease in collagen degradation”.

What about the “% Cell Death (necrosis, flow cytometry)” value (MDPC-23 cells [5]; 0.05 mM DMSO) of the same compound?
The value was 1.2 (0.8-1.6) a %.

And the “% Cell Death (necrosis, flow cytometry)” value (MDPC-23 cells [5]; 0.1 mM DMSO)?
The value was 1.3 (0.9-1.6) a %.

And the “% Cell Death (necrosis, flow cytometry)” value (MDPC-23 cells [5]; 0.3 mM DMSO)?
Its value is 1.2 (0.6-1.6) a %.

And the “% Cell Death (necrosis, flow cytometry)” value (MDPC-23 cells [5]; 0.5 mM DMSO)?
The value was 1.3 (0.8-1.5) a %.

What about the “% Cell Death (necrosis, flow cytometry)” value (MDPC-23 cells [5]; 1.0 mM DMSO) of the same compound?
Its value is 1.3 (0.8-1.6) a %.

And the “Cell death by necrosis vs control” value (MDPC-23 cells [5]; 0.05-1.0 mM DMSO, p>0.05)?
The value was “no differences”.

What about the “Effect on gelatinase activity (disappearance of bands)” value ([6]; 0.1-20% DMSO in incubation buffer, recombinant human MMP-2 and MMP-9) of the same compound?
The value was “inhibitory activity”.

And the MMP inhibition ([6]; 5% DMSO (FIG. 12, FIG. 13))?
The MMP inhibition was “up to 75.3%”.

And the MMP inhibition ([6]; 20% DMSO (FIG. 12, FIG. 13))?
The MMP inhibition was “up to 94.7%”.

What about the “Cell number (viable cells, Trypan Blue)” value (MDPC-23 cells [7]; 0.05 mM DMSO) of the same compound?
Its value is 3.7 (0.9) a.

What about the “Cell number (viable cells, Trypan Blue)” value (MDPC-23 cells [7]; 0.1 mM DMSO) of the same compound?
Its value is 4.3 (1.1) a.

What about the “Cell number (viable cells, Trypan Blue)” value (MDPC-23 cells [7]; 0.3 mM DMSO) of the same compound?
The value was 4.1 (1.4) a.

And the “Cell number (viable cells, Trypan Blue)” value (MDPC-23 cells [7]; 0.5 mM DMSO)?
The value was 4.1 (0.9) a.

And the “Cell number (viable cells, Trypan Blue)” value (MDPC-23 cells [7]; 1.0 mM DMSO)?
Its value is 4.1 (1.3) a.

What about the “Number of cells vs control” value (MDPC-23 cells [7]; 0.05-1.0 mM DMSO, p>0.05) of the same compound?
Its value is “no differences”.

And the “Cytotoxicity to odontoblast-like cells” value (MDPC-23 cells [7]; direct contact, 0.05-1.0 mM DMSO)?
Its value is “not cytotoxic or cytophatic”.
